Data taken from US12319655B2, “RAF kinase inhibitors and methods of use thereof” (Deciphera Pharmaceuticals, LLC, priority 2021, dated 2025).

Experiments:
[1] = molecular target: C-Raf kinase (SEQ. ID NO: 3) (Homo sapiens (Human), UniProt P04049, Y340D/Y341D); assay: Biochemical Assay for C-Raf (1); details: Table J, biochemical assay (1); read-out: CRAF (1)
Outline: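 Coupled pyruvate kinase/LDH assay tracking NADH oxidation at 340 nm, with 0.43 nM C-Raf, 30.1 nM MEK and 1 mM ATP in pH 7.5 Tris buffer (15 mM MgCl2, 1% DMSO final). Read continuously for 6 h at 30 °C, rate taken from the 4–5 h window. IC50 from four-parameter fit of percent inhibition.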

H2405 cells = assay: H2405 Cell Proliferation Assay (1); type: cell-based; details: Homo sapiens, NCI-H2405
Outline: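 Viability was read by resazurin reduction (ex 540 nm, em 600 nm; 5-6 h with 40 μL of 440 μM stock) after 67-72 h compound exposure at 37 °C.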

Miapaca-2 cells = assay: MiaPaca-2 Cell Proliferation Assay (2); type: cell-based; details: Homo sapiens, MIA PaCa-2, single agent
Procedure: MiaPaca-2 Cell Proliferation Assay (2)
Miapaca-2 cells (catalog #CRL-1420) are obtained from the American Type Culture Collect (ATTC, Manassas, VA). Briefly, cells were grown in DMEM supplemented with 10% characterized fetal bovine serum (Invitrogen, Carlsbad, CA), 2.5% New Zealand sourced horse serum and 1% Penicillin/Streptomycin/L-Glutamine at 37° C., 5% CO2, and 95% humidity. Cells are expanded until reaching 70-95% confluency at which point they are sub-cultured or harvested for assay use. A serial dilution of test compound is dispensed into a 384-well black clear bottom plate in triplicate. Seven hundred fifty cells are added per well in 50 μL complete growth medium in the 384-well plate. Plates are incubated for 67-72 h at 37° C., 5% CO2, and 95% humidity. At the end of the incubation, 10 μL of a 440 μM solution of resazurin (Sigma, St. Louis, MO) in PBS is added to each well of the plate and plates are incubated for an additional 5-6 h at 37° C., 5% CO2, and 95% humidity. Plates are read on a Synergy2 or equivalent reader (Biotek, Winooski VT) using an excitation of 540 nm and an emission of 600 nm. Data is analyzed using Prism software (GraphPad, San Diego, CA) to calculate IC50 values.

WM3629 cells = assay: WM3629 Cell Proliferation Assay (2); type: cell-based
Procedure: WM3629 Cell Proliferation Assay (2)
WM3629 cells (#WM3629-01-0001) are obtained from Rockland Immunochemicals Inc (Gilbertsville, PA). Briefly, cells were grown in MCDB 153 medium (Sigma, #M7403, St. Louis, MO) supplemented with 20% Leibovitz's L-15 (ThermoFisher #11415-064, Waltham, MA), 2% heat inactivated fetal bovine serum (ThermoFisher, #A3840001, Waltham, MA), 5 μg/mL Insulin (Bovine Pancreas) (Sigma, #I0516, St. Louis, MO), 1.68 mM Calcium Chloride (Sigma, #C-34006, St. Louis, MO) and 1% Penicillin/Streptomycin/L-Glutamine (ThermoFisher #10378016, Waltham, MA) at 37° C., 5% CO2, and 95% humidity. Cells are expanded until reaching 70-95% confluency at which point they are sub-cultured or harvested for assay use. Using the Beckman Coulter Echo 650, a serial dilution of test compound is dispensed into a 384-well black clear bottom plate in triplicate. One thousand one hundred twenty-five cells are added per well in 50 μL complete growth medium in the 384-well plate. Plates are incubated for 67-72 hours at 37° C., 5% CO2, and 95% humidity. At the end of the incubation, 10 μL of a 440 μM solution of resazurin (Sigma, #199303, St. Louis, MO) in PBS is added to each well of the plate and plates are incubated for an additional 3-6 hours at 37° C., 5% CO2, and 95% humidity. Plates are read on a Synergy2 or equivalent reader (Biotek, Winooski VT) using an excitation of 540 nm and an emission of 600 nm. Data is analyzed using Prism software (GraphPad, San Diego, CA) to calculate IC50 values.

Sequence of C-Raf kinase (SEQ. ID NO: 3) (P04049 307-648 Y340D/Y341D): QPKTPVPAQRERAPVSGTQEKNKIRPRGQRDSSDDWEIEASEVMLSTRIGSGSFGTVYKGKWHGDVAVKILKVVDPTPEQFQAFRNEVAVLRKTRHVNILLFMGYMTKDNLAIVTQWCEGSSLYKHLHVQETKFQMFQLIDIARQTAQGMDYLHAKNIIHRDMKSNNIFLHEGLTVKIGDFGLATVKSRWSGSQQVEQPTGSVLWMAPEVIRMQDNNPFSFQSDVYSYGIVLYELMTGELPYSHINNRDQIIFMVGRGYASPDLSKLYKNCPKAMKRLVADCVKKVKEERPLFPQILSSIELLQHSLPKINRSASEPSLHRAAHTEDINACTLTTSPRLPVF

Row | SMILES | IC50 [1] | IC50 (H2405 cells) | IC50 (Miapaca-2 cells) | IC50 (WM3629 cells)
1 | COC(=O)Nc1cc(-c2cccc(-c3cc(NC(=O)c4ccnc(C(C)(C)F)c4)cnc3C)c2)ncn1 [Example 404] | ≤ 0.1 µM | 1 to 10 µM | – | –
2 | COC(=O)Nc1cc(-c2cncc(-c3cc(NC(=O)c4ccnc(C5(C#N)CC5)c4)ccc3C)c2)ncn1 [Example 405] | ≤ 0.1 µM | ≤ 0.1 µM | – | –
3 | Cc1ncc(NC(=O)c2ccnc(C(C)(C)C#N)c2)cc1-c1cccc(-c2cnc3ccccn23)c1 [Example 407] | 0.1 to 0.5 µM | 0.5 to 1 µM | – | –
4 | CNC(=O)c1cc(-c2cncc(-c3cc(NC(=O)c4ccnc(C(C)(C)F)c4)c(F)cc3C)c2)ccn1 [Example 408] | ≤ 0.1 µM | 0.1 to 0.5 µM | – | –
5 | COC(=O)Nc1cc(-c2cnnc(-c3cc(NC(=O)c4cn(C(C)C)nn4)ccc3C)c2)ccn1 [Example 409] | 0.1 to 0.5 µM | 1 to 10 µM | – | –
6 | Cc1ccc(NC(=O)c2cn(C(C)C)nn2)cc1-c1cncc(-c2cc(NC(=O)C3CC3)ncn2)c1 [Example 412] | ≤ 0.1 µM | ≤ 0.1 µM | – | –
7 | CNC(=O)c1cc(-c2cncc(-c3cc(NC(=O)c4ccnc(C(C)(C)F)c4)ccc3C)c2)ccn1 [Example 413] | ≤ 0.1 µM | ≤ 0.1 µM | – | –
8 | COC(=O)Nc1cc(-c2cccc(-c3cc(NC(=O)Cn4cc(C(C)C)nn4)cnc3C)c2)ccn1 [Example 415] | 0.1 to 0.5 µM | – | – | –
9 | COC(=O)Nc1cc(-c2cc(-c3cc(NC(=O)c4ccnc(C(C)(C)F)c4)ccc3C)nc(C)n2)ccn1 [Example 416] | ≤ 0.1 µM | 0.1 to 0.5 µM | – | –
10 | Cc1cc(F)c(NC(=O)c2ccnc(C(C)(C)C#N)c2)cc1-c1cncc(-c2ccnc(NC(=O)C3CC3)c2)c1 [Example 418] | ≤ 0.1 µM | ≤ 0.1 µM | – | –
11 | Cc1ccc(NC(=O)c2ccnc(C(C)(C)C#N)c2)cc1-c1cncc(-c2cc(N)ncn2)c1 [Example 422] | ≤ 0.1 µM | 0.1 to 0.5 µM | – | –
12 | CNC(=O)c1cc(-c2nccc(-c3cc(NC(=O)c4ccnc(C(C)(C)F)c4)c(F)cc3C)n2)ccn1 [Example 427] | ≤ 0.1 µM | 0.1 to 0.5 µM | – | –
13 | CNC(=O)c1cc(-c2cc(-c3cc(NC(=O)c4ccnc(C(C)(C)F)c4)ccc3C)nc(C)n2)ccn1 [Example 428] | 0.1 to 0.5 µM | 0.1 to 0.5 µM | – | –
14 | Cc1ccc(NC(=O)c2ccnc(C(C)(C)F)c2)cc1-c1cncc(-c2ccnc3c2CC(=O)N3)c1 [Example 432] | ≤ 0.1 µM | – | – | –
15 | COC(=O)Nc1cc(-c2cncc(-c3cc(NC(=O)c4ccnc(C(C)(C)F)c4)ccc3C)c2)ccn1 [Example 435] | ≤ 0.1 µM | ≤ 0.1 µM | – | –
16 | Cc1ccc(NC(=O)c2cc(C3CC3)n(C)n2)cc1-c1nccc(-c2ccnc(NC(=O)C3CC3)c2)n1 [Example 436] | ≤ 0.1 µM | ≤ 0.1 µM | – | –
17 | CNC(=O)c1cc(-c2cc(-c3cc(NC(=O)c4ccnc(C(C)(C)C#N)c4)ccc3OC)ccn2)ccn1 [Example 437] | ≤ 0.1 µM | 0.1 to 0.5 µM | – | –
18 | COc1ccc(NC(=O)c2ccnc(C(C)(C)C#N)c2)cc1-c1cccc(-c2cc(NC(=O)C3CC3)ncn2)c1 [Example 438] | ≤ 0.1 µM | 0.1 to 0.5 µM | – | –
19 | CNC(=O)c1cc(-c2cc(-c3cc(NC(=O)c4ccnc(C(C)(F)F)c4)ccc3C)ccn2)ccn1 [Example 441] | – | – | 1 to 10 µM | –
20 | CNC(=O)c1cc(-c2cncc(-c3cc(NC(=O)c4ccnc(C(C)(C)C#N)c4)ccc3C)c2)ccn1 [Example 442] | – | – | 0.5 to 1 µM | –
21 | CNC(=O)c1cc(-c2cc(-c3cc(NC(=O)c4ccnc(C(C)C)c4)ccc3C)ccn2)ccn1 [Example 443] | – | – | 0.5 to 1 µM | ≤ 0.1 µM
22 | Cc1ncc(NC(=O)c2ccnc(C(C)(F)F)c2)cc1-c1ccnc(-c2ccnc(NC(=O)C3CC3)c2)c1 [Example 466] | – | – | – | ≤ 0.1 µM
23 | Cc1ccc(NC(=O)c2ccnc(C(C)C)c2)cc1-c1ccnc(-c2ccnc(NC(=O)C3CC3)c2)c1 [Example 467] | – | – | 0.5 to 1 µM | –
24 | Cc1ncc(NC(=O)c2ccnc(C(C)C)c2)cc1-c1ccnc(-c2ccnc(NC(=O)C3CC3)c2)c1 [Example 468] | – | – | 0.5 to 1 µM | –
25 | CNC(=O)c1cc(-c2cc(-c3cc(NC(=O)c4ccnc(C(C)(C)F)c4)ccc3C)cnn2)ccn1 [Example 473] | – | – | – | ≤ 0.1 µM
26 | CNC(=O)c1cc(-c2cc(-c3cc(NC(=O)c4ccnc(C(C)(C)F)c4)ccc3C)ncn2)ccn1 [Example 474] | – | – | – | ≤ 0.1 µM
27 | CNC(=O)c1cc(-c2cc(-c3cc(NC(=O)c4cnnc(C(F)(F)F)c4)ccc3C)ccn2)ccn1 [Example 477] | – | – | – | ≤ 0.1 µM
28 | CNC(=O)c1cc(-c2cc(-c3cc(NC(=O)c4ccnc(C(C)(C)F)c4)ccn3)ccn2)ccn1 [Example 481] | – | – | – | 1 to 10 µM
29 | Cc1cc(-c2cc(NC(=O)c3ccnc(C(C)(C)F)c3)ccc2C)cc(-c2ccnc(C#N)c2)n1 [Example 483] | – | – | – | ≤ 0.1 µM

Second part, led by results:

Row | IC50 [1] | IC50 (H2405 cells) | IC50 (Miapaca-2 cells) | SMILES | IC50 (WM3629 cells)
30 | ≤ 0.1 µM | ≤ 0.1 µM | – | Cc1ncc(NC(=O)c2ccnc(C(C)(C)F)c2)cc1-c1cncc(-c2cc(NC(=O)C3CC3)ncn2)c1 [Example 406] | –
31 | ≤ 0.1 µM | 0.1 to 0.5 µM | – | Cc1ncc(NC(=O)c2ccnc(C(C)(C)C#N)c2)cc1-c1cncc(-c2cc(NC(=O)C3CC3)ncn2)c1 [Example 410] | –
32 | ≤ 0.1 µM | 0.1 to 0.5 µM | – | Cc1ccc(NC(=O)c2ccnc(C(C)(C)F)c2)cc1-c1cncc(-c2cc(N)ncn2)c1 [Example 411] | –
33 | ≤ 0.1 µM | ≤ 0.1 µM | – | COC(=O)Nc1cc(-c2cncc(-c3cc(NC(=O)c4ccnc(C(C)(C)C#N)c4)ccc3C)c2)ncn1 [Example 414] | –
34 | ≤ 0.1 µM | ≤ 0.1 µM | – | Cc1ccc(NC(=O)c2ccnc(C(C)(C)F)c2)cc1-c1cncc(-c2ccnc(NC(=O)C3CC3)c2)c1 [Example 417] | –
35 | ≤ 0.1 µM | ≤ 0.1 µM | – | Cc1ccc(NC(=O)c2ccnc(C(C)(F)F)c2)cc1-c1cncc(-c2cc(NC(=O)C3CC3)ncn2)c1 [Example 419] | –
36 | ≤ 0.1 µM | ≤ 0.1 µM | – | Cc1ccc(NC(=O)c2ccnc(C(C)(C)C#N)c2)cc1-c1cncc(-c2cc(NC(=O)C(C)C)ncn2)c1 [Example 420] | –
37 | ≤ 0.1 µM | ≤ 0.1 µM | – | Cc1ccc(NC(=O)c2cc(C3CC3)on2)cc1-c1cncc(-c2cc(NC(=O)C3CC3)ncn2)c1 [Example 421] | –
38 | ≤ 0.1 µM | – | – | Cc1cc(F)c(NC(=O)c2ccnc(C(C)(C)F)c2)cc1-c1cncc(-c2cc(NC(=O)C3CC3)ncn2)c1 [Example 423] | –
39 | ≤ 0.1 µM | – | – | Cc1cc(F)c(NC(=O)c2ccnc(C(C)(C)C#N)c2)cc1-c1cncc(-c2cc(NC(=O)C3CC3)ncn2)c1 [Example 424] | –
40 | ≤ 0.1 µM | ≤ 0.1 µM | – | COC(=O)Nc1cc(-c2cncc(-c3cc(NC(=O)c4ccnc(C(C)(C)F)c4)ccc3C)c2)ncn1 [Example 425] | –
41 | ≤ 0.1 µM | ≤ 0.1 µM | – | Cc1ccc(NC(=O)c2ccnc(C(F)F)c2)cc1-c1cncc(-c2cc(NC(=O)C3CC3)ncn2)c1 [Example 429] | –
42 | ≤ 0.1 µM | 0.1 to 0.5 µM | – | Cc1ccc(NC(=O)c2cnn(C3CC3)c2)cc1-c1cncc(-c2cc(NC(=O)C3CC3)ncn2)c1 [Example 430] | –
43 | ≤ 0.1 µM | ≤ 0.1 µM | – | Cc1ccc(NC(=O)c2cc(C(C)(C)C)on2)cc1-c1cncc(-c2cc(NC(=O)C3CC3)ncn2)c1 [Example 431] | –
44 | ≤ 0.1 µM | – | – | Cc1ncc(NC(=O)c2ccnc(C(C)(C)F)c2)cc1-c1cncc(-c2ccnc(NC(=O)C3CC3)c2)c1 [Example 433] | –
45 | ≤ 0.1 µM | – | – | Cc1ccc(NC(=O)c2ccnc(C(C)C)c2)cc1-c1cncc(-c2cc(NC(=O)C3CC3)ncn2)c1 [Example 434] | –
46 | – | – | 1 to 10 µM | CNC(=O)c1cc(-c2cncc(-c3cc(NC(=O)c4ccnc(C(C)(F)F)c4)ccc3C)c2)ncn1 [Example 439] | –
47 | – | – | 1 to 10 µM | CNC(=O)c1cc(-c2cncc(-c3cc(NC(=O)c4ccnc(C(C)(F)F)c4)ccc3C)c2)ccn1 [Example 440] | –
